Experimental data as given in PubChem BioAssay AID1919006 (Molecular Pharmacology Branch, DTP, NCI, 2023).

System: 885512-296-R-J2-PDC complex spheroid growth, % test/control
Experiment: Anticancer human tumor 885512-296-R-J2-PDC patient-derived breast carcinoma cell line growth inhibition [AhR]
Settings: for IC50: curve of first compound; for viability, T/C: stronger effect = lower value
In short: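 Agents were dosed in half-log steps down from roughly clinical Cmax, or from 10 microM where Cmax was unknown, alone and with AhR antagonists. Read-out: percent test/control growth of tumor spheroids containing HUVEC and MSC stromal cells.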

[1] = second compound 0.1 µM, first compound 0.0316 µM
[2] = second compound 0.1 µM, first compound 0.1 µM
[3] = second compound 0.1 µM, first compound 0.316 µM
[4] = second compound 0.1 µM, first compound 1 µM
[5] = second compound 0.1 µM, first compound 3.16 µM
[6] = second compound 0.1 µM, first compound 10 µM
[7] = second compound 0.316 µM, first compound 0.0316 µM
[8] = second compound 0.316 µM, first compound 0.1 µM
[9] = second compound 0.316 µM, first compound 0.316 µM
[10] = second compound 0.316 µM, first compound 1 µM
[11] = second compound 0.316 µM, first compound 3.16 µM
[12] = second compound 0.316 µM, first compound 10 µM
[13] = second compound 1 µM, first compound 0.0316 µM
[14] = second compound 1 µM, first compound 0.1 µM
[15] = second compound 1 µM, first compound 0.316 µM
[16] = second compound 1 µM, first compound 1 µM
[17] = second compound 1 µM, first compound 3.16 µM
[18] = second compound 1 µM, first compound 10 µM
[19] = second compound 3.16 µM, first compound 0.0316 µM
[20] = second compound 3.16 µM, first compound 0.1 µM
[21] = second compound 3.16 µM, first compound 0.316 µM
[22] = second compound 3.16 µM, first compound 1 µM
[23] = second compound 3.16 µM, first compound 3.16 µM
[24] = second compound 3.16 µM, first compound 10 µM
[25] = second compound 10 µM, first compound 0.0316 µM
[26] = second compound 10 µM, first compound 0.1 µM
[27] = second compound 10 µM, first compound 0.316 µM
[28] = second compound 10 µM, first compound 1 µM
[29] = second compound 10 µM, first compound 3.16 µM
[30] = second compound 10 µM, first compound 10 µM
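Also: spheroids exposed to compounds for seven days.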

Row | SMILES | IC50 (second compound 0.1 µM) [nM] | IC50 (second compound 0.316 µM) [nM] | IC50 (second compound 1 µM) [nM] | IC50 (second compound 3.16 µM) [nM] | IC50 (second compound 10 µM) [nM] | viability, T/C [1] [%] | viability, T/C [2] [%] | viability, T/C [3] [%] | viability, T/C [4] [%] | viability, T/C [7] [%] | viability, T/C [8] [%] | viability, T/C [9] [%] | viability, T/C [10] [%] | viability, T/C [13] [%] | viability, T/C [14] [%] | viability, T/C [15] [%] | viability, T/C [16] [%] | viability, T/C [19] [%] | viability, T/C [20] [%] | viability, T/C [21] [%] | also measured
1 | CC(C)c1c(-c2ccccc2)nc2c(C#N)c[nH]n2c1=O + Cc1cncc(-c2nc(NCCc3c[nH]c4ccccc34)c3ncn(C(C)C)c3n2)c1 | > 10000 | > 10000 | > 10000 | > 10000 | < 31.6 | 108 | 108 | 101 | 109 | 104 | 108 | 105 | 93.3 | 94.5 | 95.4 | 83 | 83.2 | 62 | 59.7 | 56.2 | viability, T/C [5]: 97.1%; viability, T/C [6]: 86.6%; viability, T/C [11]: 102%; viability, T/C [12]: 89.3%; viability, T/C [17]: 80.8%; viability, T/C [18]: 81.8%; viability, T/C [22]: 62.1%; viability, T/C [23]: 60.5%; viability, T/C [24]: 52.3%; viability, T/C [25]: 17%; viability, T/C [26]: 18.7%; viability, T/C [27]: 17.9%; viability, T/C [28]: 14.5%; viability, T/C [29]: 17.9%; viability, T/C [30]: 17.9%
2 | CC1COCCN1c1cc(-c2ccnn2C)c2ccnc(-c3ccn[nH]3)c2n1 (stereo not given) + Cc1cncc(-c2nc(NCCc3c[nH]c4ccccc34)c3ncn(C(C)C)c3n2)c1 | 34.4 | 33.4 | 22.1 | 3.22 | < 3.16 | 55.2 | 9.6 | 3.2 | 2.72 | 51.9 | 9.85 | 3.26 | 2.57 | 40.3 | 7.24 | 2.89 | 2.37 | 33.7 | 8.94 | 2.55 | viability, T/C (second compound 0.1 µM, first compound 0.00316 µM): 99.4%; viability, T/C (second compound 0.1 µM, first compound 0.01 µM): 85.3%; viability, T/C (second compound 0.316 µM, first compound 0.00316 µM): 83.1%; viability, T/C (second compound 0.316 µM, first compound 0.01 µM): 95.9%; viability, T/C (second compound 1 µM, first compound 0.00316 µM): 74.4%; viability, T/C (second compound 1 µM, first compound 0.01 µM): 71.3%; viability, T/C (second compound 3.16 µM, first compound 0.00316 µM): 48.9%; viability, T/C (second compound 3.16 µM, first compound 0.01 µM): 50.1%; viability, T/C [22]: 2.78%; viability, T/C (second compound 10 µM, first compound 0.00316 µM): 13.3%; viability, T/C (second compound 10 µM, first compound 0.01 µM): 15.6%; viability, T/C [25]: 9.95%; viability, T/C [26]: 6.27%; viability, T/C [27]: 3.04%; viability, T/C [28]: 2.87%
3 | COc1ccc([C@@H](O)c2cc(-c3ncnc4cc(N5CCOCC5)ccc34)c(F)cc2Cl)nn1 + Cc1cncc(-c2nc(NCCc3c[nH]c4ccccc34)c3ncn(C(C)C)c3n2)c1 | > 10000 | 8020 | 6100 | 933 | < 31.6 | 101 | 93.2 | 87.4 | 87.3 | 104 | 89.7 | 81.9 | 86.5 | 90.9 | 78.4 | 86.8 | 77.7 | 55.2 | 55.5 | 48.2 | viability, T/C [5]: 63.1%; viability, T/C [6]: 51.7%; viability, T/C [11]: 65.9%; viability, T/C [12]: 45.1%; viability, T/C [17]: 63.2%; viability, T/C [18]: 39.5%; viability, T/C [22]: 53.3%; viability, T/C [23]: 42.6%; viability, T/C [24]: 32.4%; viability, T/C [25]: 18.1%; viability, T/C [26]: 15.5%; viability, T/C [27]: 16.1%; viability, T/C [28]: 13.2%; viability, T/C [29]: 11.3%; viability, T/C [30]: 9.01%
